The results in this text go back to US8785457B2 (Cellzome Limited, priority 2009, dated 2014).

The IC50 is the concentration that inhibits the measured activity by half.

This assay has as its target T1, PI3K delta (PI3 Kd) (Homo sapiens, UniProt O00329).
T1 construct: endogenous in cells; host or cells: Jurkat, clone E6-1 (ATCC TIB-152) cell lysate
Description: kinobeads assay, PI3K delta. The following applies: kinobeads assay, read-out: Inhibition values (IC50) PI3Kd. It is filed as binding. In outline: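 IC50 values came from dose-response curves after test compound (1:3 series) competed with an immobilized phenylmorpholin-chromen affinity matrix for kinases in Jurkat lysate at 5 mg/mL protein. Eluted captured DNA-PK and PI3Kδ were measured by specific-antibody dot blot and infrared imaging. Buffer was Tris pH 7.4, NP40, MgCl2, NaCl, vanadate, DTT, NaF.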

Read-outs that look alike come from different tables or passages of the source.

T1 sequence (O00329 whole entry): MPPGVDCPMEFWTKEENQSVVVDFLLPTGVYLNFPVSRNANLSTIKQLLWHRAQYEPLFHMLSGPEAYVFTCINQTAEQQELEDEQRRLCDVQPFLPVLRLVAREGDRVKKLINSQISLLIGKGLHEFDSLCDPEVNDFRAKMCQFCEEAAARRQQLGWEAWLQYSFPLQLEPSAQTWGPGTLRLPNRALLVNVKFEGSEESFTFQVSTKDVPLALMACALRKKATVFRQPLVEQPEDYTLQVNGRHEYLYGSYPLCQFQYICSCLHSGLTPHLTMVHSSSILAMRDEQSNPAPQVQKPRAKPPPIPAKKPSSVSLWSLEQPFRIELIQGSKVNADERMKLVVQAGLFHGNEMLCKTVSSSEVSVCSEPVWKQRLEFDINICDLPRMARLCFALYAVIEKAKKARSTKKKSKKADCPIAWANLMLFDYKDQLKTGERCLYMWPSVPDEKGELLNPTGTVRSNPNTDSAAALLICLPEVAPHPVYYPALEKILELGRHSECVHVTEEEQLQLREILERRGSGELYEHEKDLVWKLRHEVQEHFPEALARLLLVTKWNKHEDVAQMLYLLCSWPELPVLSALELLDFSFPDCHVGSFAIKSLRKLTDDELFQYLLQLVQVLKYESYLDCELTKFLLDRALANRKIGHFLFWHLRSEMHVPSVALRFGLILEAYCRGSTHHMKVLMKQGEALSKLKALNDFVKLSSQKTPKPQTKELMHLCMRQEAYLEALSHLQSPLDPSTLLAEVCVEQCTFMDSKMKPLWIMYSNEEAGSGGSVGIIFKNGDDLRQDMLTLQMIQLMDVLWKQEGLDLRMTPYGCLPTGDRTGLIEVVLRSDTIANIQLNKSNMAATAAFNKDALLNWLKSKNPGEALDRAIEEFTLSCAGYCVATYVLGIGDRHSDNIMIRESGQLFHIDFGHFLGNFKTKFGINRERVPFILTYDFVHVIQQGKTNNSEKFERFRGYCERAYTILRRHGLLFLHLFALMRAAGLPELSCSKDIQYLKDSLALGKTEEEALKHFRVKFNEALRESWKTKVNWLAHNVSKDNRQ
T1 sequence (P27986 whole entry partner): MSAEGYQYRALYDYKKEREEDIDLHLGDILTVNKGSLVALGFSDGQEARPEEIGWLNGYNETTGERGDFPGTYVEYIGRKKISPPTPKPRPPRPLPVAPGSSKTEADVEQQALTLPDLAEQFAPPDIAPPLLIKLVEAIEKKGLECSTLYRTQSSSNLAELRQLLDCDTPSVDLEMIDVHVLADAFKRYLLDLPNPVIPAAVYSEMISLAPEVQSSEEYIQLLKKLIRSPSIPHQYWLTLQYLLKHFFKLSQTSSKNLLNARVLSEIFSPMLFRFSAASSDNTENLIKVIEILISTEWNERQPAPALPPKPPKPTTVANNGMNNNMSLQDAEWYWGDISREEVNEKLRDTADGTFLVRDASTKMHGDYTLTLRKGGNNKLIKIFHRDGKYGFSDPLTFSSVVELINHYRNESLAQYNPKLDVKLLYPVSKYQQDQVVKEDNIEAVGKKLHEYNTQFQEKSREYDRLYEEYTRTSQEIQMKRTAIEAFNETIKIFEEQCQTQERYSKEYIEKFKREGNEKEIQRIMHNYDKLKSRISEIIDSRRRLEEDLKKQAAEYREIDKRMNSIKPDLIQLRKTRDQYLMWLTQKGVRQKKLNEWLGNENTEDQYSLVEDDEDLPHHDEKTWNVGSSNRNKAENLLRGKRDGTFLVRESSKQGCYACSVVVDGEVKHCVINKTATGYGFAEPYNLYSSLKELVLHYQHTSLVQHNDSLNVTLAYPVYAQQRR

As for `CCNC(=O)Nc1ccc(-c2nc3c(c(N4CCOC[C@@H]4C)n2)CN(C=O)C3)cc1` [Example 8, (S)-1-ethyl-3-(4-(6-formyl-4-(3-methylmorpholino)-6,7-dihydro-5H-pyrrolo[3,4-d]pyrimidin-2-yl)phenyl)urea], the IC50 is, setting by setting: (Table 4) over 10 µM; (Table 6) over 10 µM.
On to `C[C@H]1COCCN1c1nc(-c2ccc(NC(=O)NC3CC3)cc2)nc2c1CNCC2` [Example 11, (S)-1-cyclopropyl-3-(4-(4-(3-methylmorpholino)-5,6,7,8-tetrahydropyrido[4,3-d]pyrimidin-2-yl)phenyl)urea], for which the IC50 by setting is: (Table 4) over 10 µM; (Table 6) over 10 µM.
Regarding `CCNC(=O)Nc1ccc(-c2nc3c(c(N4CCOC[C@@H]4C)n2)CNCC3)cc1` [Example 12, (S)-1-ethyl-3-(4-(4-(3-methylmorpholino)-5,6,7,8-tetrahydropyrido[4,3-d]pyrimidin-2-yl)phenyl)urea], the half-maximal inhibitory concentration (IC50) is over 10 µM (Table 4) and over 10 µM (Table 6).
For `CCNC(=O)Nc1ccc(-c2nc3c(c(N4CCOC[C@@H]4C)n2)CCNC3)cc1` [Example 13, (S)-1-ethyl-3-(4-(4-(3-methylmorpholino)-5,6,7,8-tetrahydropyrido[3,4-d]pyrimidin-2yl)phenyl)urea], the IC50 (Table 4) is over 10 µM and the half-inhibitory concentration (IC50) (Table 6) was over 10 µM.
As for `C[C@H]1COCCN1c1nc(-c2ccc(NC(=O)NC3CC3)cc2)nc2c1CCNC2` [Example 15, (S)-1-cyclopropyl-3-(4-(4-(3-methylmorpholino)-5,6,7,8-tetrahydropyrido[3,4-d]pyrimidin-2-yl)phenyl)urea], the half-inhibitory concentration (IC50) was over 10 µM (Table 4) and over 10 µM (Table 6).
Consider `CNC(=O)Nc1ccc(-c2nc3c(c(N4CCOC[C@@H]4C)n2)CCNC3)cc1` [Example 16, (S)-1-methyl-3-(4-(4-(3-methylmorpholino)-5,6,7,8-tetrahydropyrido[3,4-d]pyrimidin-2-yl)phenyl)urea], for which the IC50 runs as follows: (Table 4) over 10 µM; (Table 6) over 10 µM.
As for `C[C@H]1COCCN1c1nc(-c2ccc(NC(=O)NC3CC3)cc2)nc2c1CN(C(=O)C1CC1)C2` [Example 17, (S)-1-(4-(6-(cyclopropanecarbonyl)-4-(3-methylmorpholino)-6,7-dihydro-5H-pyrrolo[3,4-d]pyrimidin-2-yl)phenyl)-3-cyclopropylurea], the IC50 is over 10 µM (Table 4) and over 10 µM (Table 6).
On to `CCNC(=O)Nc1ccc(-c2nc3c(c(N4CCOC[C@@H]4C)n2)CN(C(C)=O)C3)cc1` [Example 18, (S)-1-(4-(6-acetyl-4-(3-methylmorpholino)-6,7-dihydro-5H-pyrrolo[3,4-d]pyrimidin-2-yl)phenyl)-3-ethylurea], for which the IC50 reads like this: (Table 4) 1 to 10 µM; (Table 6) 1 to 10 µM.
For `CC(=O)N1Cc2nc(-c3ccc(NC(=O)NC4CC4)cc3)nc(N3CCOC[C@@H]3C)c2C1` [Example 20, (S)-1-(4-(6-acetyl-4-(3-methylmorpholino)-6,7-dihydro-5H-pyrrolo[3,4-d]pyrimidin-2-yl)phenyl)-3-cyclopropylurea], the IC50 (Table 4) was over 10 µM and the IC50 (Table 6) is over 10 µM.
Regarding `CCNC(=O)Nc1ccc(-c2nc3c(c(N4CCOC[C@@H]4C)n2)CN(C(=O)C(C)(C)C)C3)cc1` [Example 22, (S)-1-ethyl-3-(4-(4-(3-methylmorpholino)-6-pivaloyl-6,7-dihydro-5H-pyrrolo[3,4-d]pyrimidin-2-yl)phenyl)urea], the IC50 is over 10 µM (Table 4) and over 10 µM (Table 6).
Take `CCNC(=O)Nc1ccc(-c2nc3c(c(N4CCOC[C@@H]4C)n2)CN(C)C3)cc1` [Example 26, (S)-1-ethyl-3-(4-(6-methyl-4-(3-methylmorpholino)-6,7-dihydro-5H-pyrrolo[3,4-d]pyrimidin-2-yl)phenyl)urea]: the IC50 by setting is: (Table 4) over 10 µM; (Table 6) over 10 µM.
Regarding `C[C@H]1COCCN1c1nc(-c2ccc(NC(=O)NC3CC3)cc2)nc2c1CN(CC1CC1)C2` [Example 30], the half-inhibitory concentration (IC50) runs as follows: (Table 4) over 10 µM; (Table 6) over 10 µM.
For the molecule `CCNC(=O)Nc1ccc(-c2nc3c(c(N4CCOC[C@@H]4C)n2)CN(S(C)(=O)=O)C3)cc1` [Example 32, (S)-1-ethyl-3-(4-(4-(3-methylmorpholino)-6-(methylsulfonyl)-6,7-dihydro-5H-pyrrolo[3,4-d]pyrimidin-2-yl)phenyl)urea], the IC50 runs as follows: (Table 4) over 10 µM; (Table 6) over 10 µM.
`CCNC(=O)N1Cc2nc(-c3ccc(NC(=O)NC4CC4)cc3)nc(N3CCOC[C@@H]3C)c2C1` [Example 33, (S)-2-(4-(3-cyclopropylureido)phenyl)-N-ethyl-4-(3-methylmorpholino)-5H-pyrrolo[3,4-d]pyrimidine-6(7H)-carboxamide]: the IC50 was over 10 µM (Table 4) and over 10 µM (Table 6).
`CCN1Cc2nc(-c3ccc(NC(=O)NC4CC4)cc3)nc(N3CCOC[C@@H]3C)c2C1` [Example 36, (S)-1-cyclopropyl-3-(4-(6-ethyl-4-(3-methylmorpholino)-6,7-dihydro-5H-pyrrolo[3,4-d]pyrimidin-2-yl)phenyl)urea]: the IC50 (Table 4) was over 10 µM and the IC50 (Table 6) is over 10 µM.
For the molecule `C[C@H]1COCCN1c1nc(-c2ccc(NC(=O)NC3CC3)cc2)nc2c1CN(C)C2` [Example 38, (S)-1-cyclopropyl-3-(4-(6-methyl-4-(3-methylmorpholino)-6,7-dihydro-5H-pyrrolo[3,4-d]pyrimidin-2-yl)phenyl)urea], the IC50 is over 10 µM (Table 4) and over 10 µM (Table 6).
Regarding `CCNC(=O)Nc1ccc(-c2nc3c(c(N4CCOC[C@@H]4C)n2)CN(CC)C3)cc1` [Example 39, (S)-1-ethyl-3-(4-(6-ethyl-4-(3-methylmorpholino)-6,7-dihydro-5H-pyrrolo[3,4-d]pyrimidin-2-yl)phenyl)urea], the IC50 by setting is: (Table 4) over 10 µM; (Table 6) over 10 µM.
As to `CC(C)C(=O)N1Cc2nc(-c3ccc(NC(=O)NC4CC4)cc3)nc(N3CCOC[C@@H]3C)c2C1` [Example 44, (S)-1-cyclopropyl-3-(4-(6-isobutyryl-4-(3-methylmorpholino)-6,7-dihydro-5H-pyrrolo[3,4-d]pyrimidin-2-yl)phenyl)urea], the half-inhibitory concentration (IC50) is, setting by setting: (Table 4) over 10 µM; (Table 6) over 10 µM.
In the case of `CC(C)N1Cc2nc(-c3ccc(NC(=O)NC4CC4)cc3)nc(N3CCOC[C@@H]3C)c2C1` [Example 46, (S)-1-cyclopropyl-3-(4-(6-isopropyl-4-(3-methylmorpholino)-6,7-dihydro-5H-pyrrolo[3,4-d]pyrimidin-2-yl)phenyl)urea], the IC50 is over 10 µM (Table 4) and over 10 µM (Table 6).
With `CNC(=O)Nc1ccc(-c2nc3c(c(N4CCOC[C@@H]4C)n2)CN(CC2CC2)C3)cc1` [Example 47, (S)-1-(4-(6-(cyclopropylmethyl)-4-(3-methylmorpholino)-6,7-dihydro-5H-pyrrolo[3,4-d]pyrimidin-2-yl)phenyl)-3-methylurea], the IC50 by setting is: (Table 4) 1 to 10 µM; (Table 6) 1 to 10 µM.
As to `C[C@H]1COCCN1c1nc(-c2ccc(NC(N)=O)cc2)nc2c1CN(CC1CC1)C2` [Example 48, (S)-1-(4-(6-(cyclopropylmethyl)-4-(3-methylmorpholino)-6,7-dihydro-5H-pyrrolo[3,4-d]pyrimidin-2-yl)phenyl)urea], the half-maximal inhibitory concentration (IC50) was 1 to 10 µM (Table 4) and 1 to 10 µM (Table 6).
